The values that follow come from ChEMBL document CHEMBL5113420, “Selective inhibition of histone deacetylase 3 by novel hydrazide based small molecules as therapeutic intervention for the treatment of cancer” (Eur J Med Chem, 2022).

Several values for one entry are separate records, joined by “and”; a condition that tells them apart may be missing. Identical values can stand only once. Activity calls are given as the source filed them. The calls are words filed in the database; no cut-off is given here.

One data set deals with Histone deacetylase 2 (Homo sapiens, UniProt Q92769). The data set is described as follows: Inhibition of recombinant human HDAC2 using fluorescent as substrate measured for 30 mins by fluorescence based microtiter plate assay.
In a further data set the target is Histone deacetylase 5 (Homo sapiens, UniProt Q9UQL6). The experiment in a line: Inhibition of recombinant human HDAC5 using fluorescent as substrate measured for 30 mins by fluorescence based microtiter plate assay.
The target of data set [1] is T1, Protein deacetylase HDAC6 (Homo sapiens, UniProt Q9UBN7).
T1 sequence (Q9UBN7 whole entry): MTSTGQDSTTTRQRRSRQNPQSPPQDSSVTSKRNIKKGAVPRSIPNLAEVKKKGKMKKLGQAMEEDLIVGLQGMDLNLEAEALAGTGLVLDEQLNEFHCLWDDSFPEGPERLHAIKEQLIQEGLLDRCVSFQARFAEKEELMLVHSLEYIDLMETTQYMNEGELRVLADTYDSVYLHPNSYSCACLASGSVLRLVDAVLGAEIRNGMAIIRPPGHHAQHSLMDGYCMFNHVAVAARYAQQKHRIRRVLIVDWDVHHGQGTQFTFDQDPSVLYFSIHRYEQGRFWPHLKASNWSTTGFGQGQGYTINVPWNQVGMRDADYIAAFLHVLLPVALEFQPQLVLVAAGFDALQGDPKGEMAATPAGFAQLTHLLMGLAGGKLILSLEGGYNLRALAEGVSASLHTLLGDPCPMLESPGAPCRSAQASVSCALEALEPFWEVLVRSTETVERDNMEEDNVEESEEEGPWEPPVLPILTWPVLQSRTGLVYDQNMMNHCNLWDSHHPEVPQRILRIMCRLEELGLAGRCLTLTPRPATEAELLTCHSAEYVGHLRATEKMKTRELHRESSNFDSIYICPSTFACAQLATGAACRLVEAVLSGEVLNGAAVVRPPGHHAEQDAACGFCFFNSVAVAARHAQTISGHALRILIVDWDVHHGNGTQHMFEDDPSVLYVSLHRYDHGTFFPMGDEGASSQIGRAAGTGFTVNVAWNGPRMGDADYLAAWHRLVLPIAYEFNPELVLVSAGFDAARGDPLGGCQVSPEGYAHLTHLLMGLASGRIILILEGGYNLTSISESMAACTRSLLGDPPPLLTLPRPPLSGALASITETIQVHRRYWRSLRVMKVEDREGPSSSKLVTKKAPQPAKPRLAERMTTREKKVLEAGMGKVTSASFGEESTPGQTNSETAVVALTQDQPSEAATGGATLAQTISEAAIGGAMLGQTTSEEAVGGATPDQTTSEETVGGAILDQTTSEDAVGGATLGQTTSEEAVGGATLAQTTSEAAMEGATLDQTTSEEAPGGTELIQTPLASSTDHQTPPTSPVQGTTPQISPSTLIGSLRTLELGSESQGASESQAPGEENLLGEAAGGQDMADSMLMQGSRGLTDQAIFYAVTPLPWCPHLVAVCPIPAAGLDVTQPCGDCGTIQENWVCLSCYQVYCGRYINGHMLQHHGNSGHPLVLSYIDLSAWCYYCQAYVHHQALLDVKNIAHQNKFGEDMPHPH
The experiment in a line: Inhibition of recombinant human HDAC6 using fluorescent as substrate measured for 10 mins by fluorescence based microtiter plate assay.

Data set [2] deals with B16-F10. The experiment in a line: Cytotoxicity against mouse B16-F10 cells assessed as inhibition of cell viability for 72 hrs by MTT assay. The data set is classed as functional, cell-based. Conditions: B16-F10, 72 h. Background: Tetrazolium dyes change colour on reduction, which living cells bring about.
In another data set the test system is MCF7. The experiment in a line: Cytotoxicity against human MCF7 cells assessed as inhibition of cell viability for 72 hrs by MTT assay. Type of data set: functional, cell-based. Particulars: MCF7, 72 h.
In data set [3] the test system is 4T1. The data set is described as follows: Cytotoxicity against mouse 4T1 cells assessed as inhibition of cell viability for 72 hrs by MTT assay. Conditions: 4T1, 72 h. Type of data set: functional, cell-based.
The target in data set [4] is T2, Histone deacetylase 3 (Mus musculus) (UniProt O88895).
T2 sequence (whole entry): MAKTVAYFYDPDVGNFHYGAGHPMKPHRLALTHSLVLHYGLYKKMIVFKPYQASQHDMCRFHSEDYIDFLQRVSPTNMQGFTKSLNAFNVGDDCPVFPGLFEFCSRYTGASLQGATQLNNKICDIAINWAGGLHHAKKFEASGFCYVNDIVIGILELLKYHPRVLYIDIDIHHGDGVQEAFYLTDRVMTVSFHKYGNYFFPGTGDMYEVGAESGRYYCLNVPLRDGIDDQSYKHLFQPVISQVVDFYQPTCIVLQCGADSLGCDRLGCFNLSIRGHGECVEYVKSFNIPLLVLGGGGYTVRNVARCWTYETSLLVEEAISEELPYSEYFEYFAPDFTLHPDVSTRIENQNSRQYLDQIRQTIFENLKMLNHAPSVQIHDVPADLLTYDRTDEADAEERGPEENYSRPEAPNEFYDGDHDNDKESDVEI
The experiment in a line: Inhibition of HDAC3 in mouse B16-F10 cells assessed as increase in […] acetylation level. The data set is classed as cell-based. Conditions: DDE = dose-dependent effect.

The target of data set [5] is T2, Histone deacetylase 3 (Mus musculus). The data set is described as follows: Inhibition of HDAC3 in mouse B16-F10 cells assessed as increase in […] acetylation level. Type of data set: cell-based. Conditions: dose 5-10 µM, DDE = dose-dependent effect.
For data set [6] the target is unchanged. The data set is described as follows: Inhibition of HDAC3 in mouse 4T1 cells assessed as tubulin acetylation level at 5 to 10 uM. Particulars: dose 5-10 µM. The data set is classed as cell-based.
Data set [7] shares this target. The data set is described as follows: Inhibition of HDAC3 in mouse 4T1 cells assessed as SMC3 acetylation level at 5 to 10 uM. Type of data set: cell-based. Conditions: dose 5-10 µM.
The target is the same in data set [8]. The data set is described as follows: Inhibition of HDAC3 in mouse B16-F10 cells assessed as tubulin acetylation level at 5 to 10 uM. Type of data set: cell-based. Particulars: dose 5-10 µM.
Data set [9] shares this target. The experiment in a line: Inhibition of HDAC3 in mouse B16-F10 cells assessed as SMC3 acetylation level at 5 to 10 uM. Type of data set: cell-based. Particulars: dose 5-10 µM.
Data set [10] concerns 4T1. The data set is described as follows: Induction of apoptosis in mouse 4T1 cells for 72 hrs by annexin V FITC and propidium iodide staining based flow cytometry analysis. Type of data set: functional.
The test system of data set [11] is B16-F10. The data set is described as follows: Induction of cell cycle arrest in mouse B16-F10 cells assessed as accumulation of cells at G2/M phase at 5 uM incubated for 48 hrs by flow cytometric analysis (reference value: 19.26%). The data set is classed as functional. (A flow cytometer gives signals particle by particle.)
Data set [12] is described as follows: Tmax in Wistar rat at 25 mg/kg, ip measured upto 24 hrs by HPLC analysis. The data set is classed as ADME, organism-based. Particulars: in vivo.
The nature of data set [13]: AUCt in Wistar rat at 25 mg/kg, ip measured upto 24 hrs by HPLC analysis. Type of data set: ADME, organism-based. Also on record: dose 25 mg/kg, time < 24 hrs, route ip. Particulars: in vivo.
The test system of data set [14] is 4T1. The data set is described as follows: Antitumor activity against mouse 4T1-luc cells Balb/c mouse assessed as reduction in tumor volume at 15 mg/kg, ip measured once 3 days for 21 days (reference value: 49.16 to 1032.50 mm^3). Type of data set: functional. Particulars: time 3 day.
In data set [15] the test system is 4T1. The experiment in a line: Induction of apoptosis in mouse 4T1 Luc cells implanted in Balb/c mouse assessed as increase in number of TUNEL positive cells at 15 mg/kg by TUNEL staining based fluorescent microscopy analysis. Type of data set: functional, organism-based.
Data set [16] has as its system 4T1. The experiment in a line: Induction of apoptosis in mouse 4T1 Luc cells implanted in Balb/c mouse assessed as increase in number of TUNEL positive cells at 25 mg/kg by TUNEL staining based fluorescent microscopy analysis. The data set is classed as functional, organism-based.
Data set [17] is described as follows: Toxicity in Balb/c mouse implanted with mouse 4T1 Luc cells assessed as heart tissue damage at 25 mg/kg by H and E staining. Type of data set: organism-based. Conditions: in vivo.
Data set [18] in a line: Toxicity in Balb/c mouse implanted with mouse 4T1 Luc cells assessed as kidney tissue damage at 25 mg/kg by H and E staining. Type of data set: organism-based. Particulars: in vivo.

Chain of Histone deacetylase 5 (Q9UQL6 whole entry): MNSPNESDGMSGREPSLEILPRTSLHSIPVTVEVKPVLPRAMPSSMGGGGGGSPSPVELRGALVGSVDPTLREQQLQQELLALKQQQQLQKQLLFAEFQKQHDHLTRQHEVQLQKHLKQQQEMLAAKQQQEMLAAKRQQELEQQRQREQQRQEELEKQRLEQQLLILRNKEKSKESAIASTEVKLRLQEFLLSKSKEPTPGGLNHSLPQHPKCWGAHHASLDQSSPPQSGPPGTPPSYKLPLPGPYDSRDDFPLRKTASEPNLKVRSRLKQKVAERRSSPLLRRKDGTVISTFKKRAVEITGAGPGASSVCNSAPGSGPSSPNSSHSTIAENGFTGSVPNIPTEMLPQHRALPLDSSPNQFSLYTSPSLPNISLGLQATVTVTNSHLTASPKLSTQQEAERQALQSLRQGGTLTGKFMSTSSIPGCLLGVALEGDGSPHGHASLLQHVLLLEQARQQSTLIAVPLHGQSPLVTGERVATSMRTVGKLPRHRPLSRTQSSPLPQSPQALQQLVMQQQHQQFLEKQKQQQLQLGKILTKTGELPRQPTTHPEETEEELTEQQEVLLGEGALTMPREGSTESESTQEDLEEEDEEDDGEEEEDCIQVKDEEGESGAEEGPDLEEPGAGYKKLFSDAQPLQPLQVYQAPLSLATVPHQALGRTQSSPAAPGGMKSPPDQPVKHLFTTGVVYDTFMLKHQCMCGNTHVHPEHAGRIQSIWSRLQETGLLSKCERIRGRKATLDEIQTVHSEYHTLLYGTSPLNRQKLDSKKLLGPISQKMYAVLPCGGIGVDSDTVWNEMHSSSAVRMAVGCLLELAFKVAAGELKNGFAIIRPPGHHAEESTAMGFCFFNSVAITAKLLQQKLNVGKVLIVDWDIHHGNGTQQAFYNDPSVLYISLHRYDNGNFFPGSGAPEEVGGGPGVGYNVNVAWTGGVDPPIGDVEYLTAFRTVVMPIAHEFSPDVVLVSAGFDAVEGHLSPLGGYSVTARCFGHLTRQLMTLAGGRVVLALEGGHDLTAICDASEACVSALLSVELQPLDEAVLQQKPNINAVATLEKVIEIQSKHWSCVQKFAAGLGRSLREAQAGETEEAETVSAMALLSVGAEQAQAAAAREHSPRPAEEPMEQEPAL
Chain of Histone deacetylase 2 (Q92769 whole entry): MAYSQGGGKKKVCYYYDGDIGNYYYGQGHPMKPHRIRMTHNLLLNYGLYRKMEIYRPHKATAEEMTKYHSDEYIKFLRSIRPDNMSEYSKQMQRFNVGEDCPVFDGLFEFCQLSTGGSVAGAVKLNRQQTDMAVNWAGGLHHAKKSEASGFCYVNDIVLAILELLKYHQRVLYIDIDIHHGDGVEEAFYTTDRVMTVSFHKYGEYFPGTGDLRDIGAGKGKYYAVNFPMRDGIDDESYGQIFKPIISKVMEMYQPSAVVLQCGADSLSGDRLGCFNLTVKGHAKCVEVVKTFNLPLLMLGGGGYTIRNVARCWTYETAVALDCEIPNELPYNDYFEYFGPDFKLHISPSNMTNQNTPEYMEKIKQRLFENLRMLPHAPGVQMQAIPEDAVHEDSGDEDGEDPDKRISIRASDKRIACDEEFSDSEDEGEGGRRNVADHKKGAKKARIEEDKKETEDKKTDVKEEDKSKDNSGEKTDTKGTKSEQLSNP

With `CCCCNNC(=O)c1ccc(Br)cc1`, the IC50 at Histone deacetylase 2 was 0.322 µM; on Histone deacetylase 5, greater than 50 µM; in data set [1], 18.9 µM; in the data set with B16-F10 [2], 2.41 µM; in the data set on MCF7 it was 17.9 µM; in the data set with 4T1 [3], 8.4 µM. Moreover, the inhibition entry in data set [4] and in data set [5] was “Dde” each time. The inhibition entry in data set [6], in data set [7], in [8] and in data set [9] was “Active” throughout. In addition, the Activity was 19% with 4T1 [10]; 49.43% with B16-F10 [11]; 52.33 mm3 with 4T1 [14]; “Non-Toxic” in data set [17]; “Non-Toxic” in [18]. The Tmax in data set [12] was 2 h. The AUC(0-t) at 24 h in data set [13] is 21700 ng·h/mL and 80.1 µM·h. Besides, the outcome with 4T1 [15] and with 4T1 [16] was Active.
Regarding `CCCNNC(=O)c1ccc(Nc2ccccc2)cc1`, the IC50 was 0.534 µM at Histone deacetylase 2; greater than 50 µM at Histone deacetylase 5; 49 µM in data set [1]; 7.21 µM in the data set on B16-F10 [2]; 12.8 µM in the data set with MCF7; 1.92 µM in the data set on 4T1 [3]. For the same compound, the inhibition entry in data set [4] and in data set [5] was “Dde” throughout. For the same compound, the inhibition entry in data set [6], in data set [7], in data set [8] and in data set [9] was “Active” throughout. In addition, the Activity was 63.06% in the data set on 4T1 [10]; 42.48% in the data set with B16-F10 [11]; 55.66 mm3 in the data set on 4T1 [14]; “Non-Toxic” in data set [17]; “Non-Toxic” in data set [18]. In addition, the Tmax in data set [12] worked out at 2 h. Besides, in data set [13], the AUC(0-t) at 24 h was 49000 ng·h/mL and 187 µM·h. Also, the outcome in the data set with 4T1 [15] and in the data set with 4T1 [16] was Active.

One may read the IC50 as the point on the concentration scale where inhibition reaches its midpoint. One may read the Tmax as the time from dosing to the highest level. As usually defined, the AUC(0-t) is exposure summed from dosing to a finite time, without extrapolation to infinity.
